Results published in ChEMBL document CHEMBL5550108, “Exploiting high-energy hydration sites for the discovery of potent peptide aldehyde inhibitors of the SARS-CoV-2 main protease with cellular antiviral activity” (Bioorg Med Chem, 2024).

How the values were obtained:
[1] = system: SARS-CoV-2; assay: Antiviral activity against SARS-CoV-2 USA-WA1/2020 infected in human HeLa cells harbouring ACE2 assessed as reduction in cytopathic effect pretreated with cells followed by viral infection and measured after 24 hrs by fluorescence based analysis; format: functional, organism-based; conditions: Severe acute respiratory syndrome coronavirus 2, USA-WA1/2020, HeLa
[2] = system: SARS-CoV-2; assay: Selectivity ratio of EC50 for antiviral activity against SARS-CoV-2 USA-WA1/2020 infected in human HeLa cells harbouring ACE2 to IC50 for inhibition of C terminal 6 his tagged SARS-CoV-2 main protease expressed in Escherichia coli BL-21-Gold(DE3) cells; format: functional

SMILES | EC50 [1] [nM] | Selectivity ratio [2]
COc1cccc2[nH]c(C(=O)N3C[C@H]4[C@@H]([C@H]3C(=O)N[C@H](C=O)C[C@@H]3CCNC3=O)C4(C)C)cc12 | 8800 | 
CC1(C)[C@@H]2[C@@H](C(=O)N[C@H](C=O)C[C@@H]3CCNC3=O)N(C(=O)c3cc4cccc(Cl)c4[nH]3)C[C@@H]21 | 300 | 
CC1(C)[C@@H]2[C@@H](C(=O)N[C@H](C=O)C[C@@H]3CCNC3=O)N(C(=O)c3cc4cccc(C(F)(F)F)c4[nH]3)C[C@@H]21 | 240 | 
Cc1cccc2[nH]c(C(=O)N3C[C@H]4[C@@H]([C@H]3C(=O)N[C@H](C=O)C[C@@H]3CCNC3=O)C4(C)C)cc12 | 1400 | 
CC1(C)[C@@H]2[C@@H](C(=O)N[C@H](C=O)C[C@@H]3CCNC3=O)N(C(=O)C3(c4ccccc4)CCCC3)C[C@@H]21 | 110 | 
CC1(C)[C@@H]2[C@@H](C(=O)N[C@H](C=O)C[C@@H]3CCNC3=O)N(C(=O)Cc3ccccc3)C[C@@H]21 | 530 | 
C[C@H](C(=O)N1C[C@H]2[C@@H]([C@H]1C(=O)N[C@H](C=O)C[C@@H]1CCNC1=O)C2(C)C)C1CCCCC1 | 470 | 
CC(C)c1cccc2[nH]c(C(=O)N3C[C@H]4[C@@H]([C@H]3C(=O)N[C@H](C=O)C[C@@H]3CCNC3=O)C4(C)C)cc12 | 370 | 
CC(C)(C)CCC(=O)N1C[C@H]2[C@@H]([C@H]1C(=O)N[C@H](C=O)C[C@@H]1CCNC1=O)C2(C)C | 690 | 
Cc1cccc([C@@H](C)C(=O)N2C[C@H]3[C@@H]([C@H]2C(=O)N[C@H](C=O)C[C@@H]2CCNC2=O)C3(C)C)c1 | 170 | 
CC(C)c1ccc(F)c2[nH]c(C(=O)N3C[C@H]4[C@@H]([C@H]3C(=O)N[C@H](C=O)C[C@@H]3CCNC3=O)C4(C)C)cc12 | 120 | 
CC(C)c1ccc(Cl)c2[nH]c(C(=O)N3C[C@H]4[C@@H]([C@H]3C(=O)N[C@H](C=O)C[C@@H]3CCNC3=O)C4(C)C)cc12 | 270 | 
Cc1cccc2cc(C(=O)N3C[C@H]4[C@@H]([C@H]3C(=O)N[C@H](C=O)C[C@@H]3CCNC3=O)C4(C)C)[nH]c12 | 1300 | 
CC1(C)[C@@H]2[C@@H](C(=O)N[C@H](C=O)C[C@@H]3CCNC3=O)N(C(=O)c3cc4c(F)cccc4[nH]3)C[C@@H]21 | 1800 | 
CC(C)(C(=O)N1C[C@H]2[C@@H]([C@H]1C(=O)N[C@H](C=O)C[C@@H]1CCNC1=O)C2(C)C)c1ccccc1 | 343 | 
CC(C)(C)CC(=O)N1C[C@H]2[C@@H]([C@H]1C(=O)N[C@H](C=O)C[C@@H]1CCNC1=O)C2(C)C | 1100 | 
CC1(C)[C@@H]2[C@@H](C(=O)N[C@H](C=O)C[C@@H]3CCNC3=O)N(C(=O)CC3CCCCC3)C[C@@H]21 | 340 | 
CC1(C)C[C@@H](C(=O)N[C@H](C=O)C[C@@H]2CCNC2=O)N(C(=O)c2cc3ccccc3[nH]2)C1 | 7100 | 30

SMILES | EC50 [1] [nM] | Selectivity ratio [2]
CC1(C)[C@@H]2[C@@H](C(=O)N[C@H](C=O)C[C@@H]3CCNC3=O)N(C(=O)C3(c4cccc(Cl)c4)CC3)C[C@@H]21 | 90 | 
CC1(C)[C@@H]2[C@@H](C(=O)N[C@H](C=O)C[C@@H]3CCNC3=O)N(C(=O)c3cc4cc(F)ccc4[nH]3)C[C@@H]21 | 4000 | 
CC1(C)[C@@H]2[C@@H](C(=O)N[C@H](C=O)C[C@@H]3CCNC3=O)N(C(=O)c3cc4ccccc4[nH]3)C[C@@H]21 | 2500 | 30
O=C[C@H](C[C@@H]1CCNC1=O)NC(=O)[C@@H]1CC2(CC2)CN1C(=O)c1cc2ccccc2[nH]1 | 9200 | 30
CC1(C)[C@@H]2[C@@H](C(=O)N[C@H](C=O)C[C@@H]3CCNC3=O)N(C(=O)c3cc4c(C#N)cccc4[nH]3)C[C@@H]21 | 8500 | 
CC(C)Oc1cccc2[nH]c(C(=O)N3C[C@H]4[C@@H]([C@H]3C(=O)N[C@H](C=O)C[C@@H]3CCNC3=O)C4(C)C)cc12 | 250 | 
O=C[C@H](C[C@@H]1CCNC1=O)NC(=O)[C@@H]1C[C@@H](C2CCCCC2)CN1C(=O)c1cc2ccccc2[nH]1 | 770 | 30
CC1(C)[C@@H]2[C@@H](C(=O)N[C@H](C=O)C[C@@H]3CCNC3=O)N(C(=O)C3(c4ccccc4)CC3)C[C@@H]21 | 196 | 
C[C@@H](C(=O)N1C[C@H]2[C@@H]([C@H]1C(=O)N[C@H](C=O)C[C@@H]1CCNC1=O)C2(C)C)c1ccccc1 | 300 | 
CCc1cccc2[nH]c(C(=O)N3C[C@H]4[C@@H]([C@H]3C(=O)N[C@H](C=O)C[C@@H]3CCNC3=O)C4(C)C)cc12 | 630 | 
CC1(C)[C@@H]2[C@@H](C(=O)N[C@H](C=O)C[C@@H]3CCNC3=O)N(C(=O)c3cc4cccc(F)c4[nH]3)C[C@@H]21 | 720 | 
CC1(C)[C@@H]2[C@@H](C(=O)N[C@H](C=O)C[C@@H]3CCNC3=O)N(C(=O)c3cc4cccc(C#N)c4[nH]3)C[C@@H]21 | 410 | 
CC1(C)[C@@H]2[C@@H](C(=O)N[C@H](C=O)C[C@@H]3CCNC3=O)N(C(=O)C3(O)CCCCC3)C[C@@H]21 | 2200 | 
CC1CCC(CC(=O)N2C[C@H]3[C@@H]([C@H]2C(=O)N[C@H](C=O)C[C@@H]2CCNC2=O)C3(C)C)CC1 (some centres undefined) | 160 | 
COc1cccc2cc(C(=O)N3C[C@H]4[C@@H]([C@H]3C(=O)N[C@H](C=O)C[C@@H]3CCNC3=O)C4(C)C)[nH]c12 | 1300 | 
C[C@@H](C(=O)N1C[C@H]2[C@@H]([C@H]1C(=O)N[C@H](C=O)C[C@@H]1CCNC1=O)C2(C)C)C1CCCCC1 | 300 | 
CC1(C)[C@@H]2[C@@H](C(=O)N[C@H](C=O)C[C@@H]3CCNC3=O)N(C(=O)c3cc4ccc(F)cc4[nH]3)C[C@@H]21 | 1800 | 
